Data taken from patent US9770407B2 (Lundbeck Pharmaceuticals LLC, priority 2005, dated 2017).
“And” between values parts separate entries of the source, which are not always exact repeats. Equal values may be shown once.

Test: Phase solubility of CBZ in aqueous Captisol and aqueous Cavitron
Assay type: physicochemical
Settings: for Measured CBZ conc: ambient laboratory temperature; for Measured CBZ conc, Ave: average of the three determinations
Protocol: The percent weight/volume cyclodextrin solutions were prepared by adding the appropriate amount of cyclodextrin to a flask and filling to the desired total volume (10 mL) with water, as shown in the following Table 4. An excess of carbamazepine was added to each eppendorf tube. Appropriate vehicles were added to each tube and the final volumes were 1 mL. The solubility of CBZ was determined at ambient laboratory temperatures in various concentrations of aqueous Captisol and aqueous Cavitron (brand names of modified cyclodextrins useful in the present invention). The drug substance was added to a microcentrifuge tube and the appropriate vehicle was added. Periodically, the samples were centrifuged and then an aliquot was removed from the supernatant, diluted as necessary and assayed by HPLC to determine the concentration. The phase solubility was evaluated at least three times during each experiment to insure that the mixture achieved equilibrium. […] The solubilities reported in Table 5 are the average of two or three concentration determinations obtained during the respective time course.

NC(=O)N1c2ccccc2C=Cc2ccccc21 [Carbamazepine, 5H-dibenz[b,f]azepine-5-carboxamide]
Measured CBZ conc (Captisol 0% w/v, CBZ source Orgamol): 0.2 mg/mL | Measured CBZ conc (Captisol 0% w/v, CBZ source Spectrum): 0.2 mg/mL | Measured CBZ conc, Ave (Captisol 0% w/v): 0.2 mg/mL | Measured CBZ conc (Captisol 5% w/v, CBZ source Orgamol, listed as CBZ): 2.2 mg/mL and 2.4 mg/mL | Measured CBZ conc (Captisol 5% w/v, CBZ source Spectrum): 2.4 mg/mL | Measured CBZ conc, Ave (Captisol 5% w/v): 2.3 mg/mL | Measured CBZ conc (Captisol 10% w/v, CBZ source Orgamol, listed as CBZ): 4.1 mg/mL and 4.6 mg/mL | Measured CBZ conc (Captisol 10% w/v, CBZ source Spectrum): 6.2 mg/mL | Measured CBZ conc, Ave (Captisol 10% w/v): 5.0 mg/mL | Measured CBZ conc (Captisol 15% w/v, CBZ source Orgamol, listed as CBZ): 6.4 mg/mL and 7.7 mg/mL | Measured CBZ conc (Captisol 15% w/v, CBZ source Spectrum): 6.9 mg/mL | Measured CBZ conc, Ave (Captisol 15% w/v): 7.0 mg/mL | Measured CBZ conc (Captisol 20% w/v, CBZ source Orgamol, listed as CBZ): 9.2 mg/mL and 10.3 mg/mL | Measured CBZ conc (Captisol 20% w/v, CBZ source Spectrum): 9.4 mg/mL | Measured CBZ conc, Ave (Captisol 20% w/v): 9.6 mg/mL | Measured CBZ conc (Captisol 25% w/v, CBZ source Orgamol, listed as CBZ): 11.4 mg/mL and 12.3 mg/mL | Measured CBZ conc (Captisol 25% w/v, CBZ source Spectrum): 11.8 mg/mL | Measured CBZ conc, Ave (Captisol 25% w/v): 11.8 mg/mL | Measured CBZ conc (Captisol 30% w/v, CBZ source Orgamol, listed as CBZ): 13.5 mg/mL and 15.2 mg/mL | Measured CBZ conc (Captisol 30% w/v, CBZ source Spectrum): 14.6 mg/mL | Measured CBZ conc, Ave (Captisol 30% w/v): 14.4 mg/mL | Measured CBZ conc (Captisol 35% w/v, CBZ source Orgamol, listed as CBZ): 15.9 mg/mL and 18.4 mg/mL | Measured CBZ conc (Captisol 35% w/v, CBZ source Spectrum): 16.3 mg/mL | Measured CBZ conc, Ave (Captisol 35% w/v): 16.9 mg/mL | Measured CBZ conc (Captisol 40% w/v, CBZ source Orgamol, listed as CBZ): 18.3 mg/mL and 20.8 mg/mL | Measured CBZ conc (Captisol 40% w/v, CBZ source Spectrum): 19.3 mg/mL | Measured CBZ conc, Ave (Captisol 40% w/v): 19.5 mg/mL | Measured CBZ conc (Captisol 45% w/v, CBZ source Orgamol, listed as CBZ): 20.6 mg/mL and 22.5 mg/mL | Measured CBZ conc (Captisol 45% w/v, CBZ source Spectrum): 21.8 mg/mL | Measured CBZ conc, Ave (Captisol 45% w/v): 21.6 mg/mL | Measured CBZ conc (Captisol 50% w/v, CBZ source Orgamol, listed as CBZ): 22.5 mg/mL and 24.8 mg/mL | Measured CBZ conc (Captisol 50% w/v, CBZ source Spectrum): 26.6 mg/mL | Measured CBZ conc, Ave (Captisol 50% w/v): 24.6 mg/mL | Measured CBZ conc (Cavitron 0% w/v, CBZ source Orgamol): 0.2 mg/mL | Measured CBZ conc (Cavitron 0% w/v, CBZ source Spectrum): 0.3 mg/mL | Measured CBZ conc (Cavitron 5% w/v, CBZ source Orgamol, listed as CBZ): 2.7 mg/mL and 3.0 mg/mL | Measured CBZ conc (Cavitron 5% w/v, CBZ source Spectrum): 3.8 mg/mL | Measured CBZ conc, Ave (Cavitron 5% w/v): 3.2 mg/mL | Measured CBZ conc (Cavitron 10% w/v, CBZ source Orgamol, listed as CBZ): 5.4 mg/mL and 5.6 mg/mL | Measured CBZ conc (Cavitron 10% w/v, CBZ source Spectrum): 4.1 mg/mL | Measured CBZ conc, Ave (Cavitron 10% w/v): 5.0 mg/mL | Measured CBZ conc (Cavitron 15% w/v, CBZ source Orgamol, listed as CBZ): 8.2 mg/mL and 8.4 mg/mL | Measured CBZ conc (Cavitron 15% w/v, CBZ source Spectrum): 12.3 mg/mL | Measured CBZ conc, Ave (Cavitron 15% w/v): 9.6 mg/mL | Measured CBZ conc (Cavitron 20% w/v, CBZ source Orgamol, listed as CBZ): 10.9 mg/mL and 11.1 mg/mL | Measured CBZ conc (Cavitron 20% w/v, CBZ source Spectrum): 16.4 mg/mL | Measured CBZ conc, Ave (Cavitron 20% w/v): 12.8 mg/mL | Measured CBZ conc (Cavitron 25% w/v, CBZ source Orgamol, listed as CBZ): 14.0 mg/mL and 14.3 mg/mL | Measured CBZ conc (Cavitron 25% w/v, CBZ source Spectrum): 14.8 mg/mL | Measured CBZ conc, Ave (Cavitron 25% w/v): 14.4 mg/mL | Measured CBZ conc (Cavitron 30% w/v, CBZ source Orgamol, listed as CBZ): 15.9 mg/mL and 16.2 mg/mL | Measured CBZ conc (Cavitron 30% w/v, CBZ source Spectrum): 17.9 mg/mL | Measured CBZ conc, Ave (Cavitron 30% w/v): 16.7 mg/mL
